Source: PMC10920779, “Targeting P2Y14R protects against necroptosis of intestinal epithelial cells through PKA/CREB/RIPK1 axis in ulcerative colitis” (Nature Communications, 2024)
Where “and” joins values, the source holds several entries; their conditions need not be identical. Equal entries are not always repeated.

What was measured:
[1] = test system: DSS-induced colitis in mice; assay: DSS-induced acute colitis in WT mice, P2Y14R antagonist treatment (body weight, DAI, colon length, H&E, tight junction staining, TEM); assay type: in vivo, mouse; parameters: DAI: scale not given here; conditions: for Colitis symptoms: daily treatment, 3% DSS mice; for H&E staining: inflammatory infiltration and tissue damage / Tight junction protein expression (immunofluorescence) / Body weight loss and DAI vs DSS-exposed mice / Colon length vs mice treated with DSS only: high-dose, 20 μM; for Body weight loss and DAI vs DSS-exposed mice: daily
Text: Male, 7-8-week-old, P2Y14R^fl/fl Vil-cre (P2Y14R^∆IEC), P2Y14R^fl/fl Lyz2-cre and WT mice with C57BL/6 J background were used to establish experimental (acute) colitis model. P2Y14R^fl/fl C57BL/6 J mice were used as control for P2Y14R^fl/fl Vil-cre (P2Y14R^∆IEC) and P2Y14R^fl/fl Lyz2-cre mice. WT C57BL/6 J mice were used for the pharmacological study of HDL-16. Colitis was induced by dextran sodium sulfate (DSS; 36-50 kDa; 3% w/v; MP Biomedicals, Solon, Ohio, USA), added to the drinking water ad libitum for 7 days. Control mice received standard drinking water. The Disease Activity Index (DAI) was evaluated daily as described previously. After 7 days of DSS treatment, mice were euthanized by carbon dioxide inhalation and the colons were measured and then processed for histological analyses, homogenized to extract protein or RNA.
The DSS group and the P2Y14R^△IEC + DSS group were rectally administered with 100 μl vehicle (saline with 0.1% DMSO). The low-dose group of mice was given 10 μM HDL-16, 100 μl per mouse, while the high-dose group was given 20 μM HDL-16, 100 μl per mouse.
For TEM, harvest fresh tissue blocks quickly within 1-3 minutes. […] Then tissues avoid light post fixed in 1% OsO4 in PBS for 2 h at room temperature. […] The samples were moved into a 65°C oven to polymerize for more than 48 h. Ultrathin sections were cut to 60-80 nm thin with an ultramicrotome UCT6 (Leica Microsystems, Vienna) and placed on 150 meshes cuprum grids (formvar carbon coated Cu grids) with formvar film. […] Micrographs were obtained with a Jeol JEM 1400 plus electron microscope (Jeol, USA) operating at 80 kV.
For histological assessment of colitis, colon specimens were fixed in 4% paraformaldehyde (PFA) and embedded in paraffin. Five-micrometer tissue sections were stained with H&E and examined for evidence of colitis as described previously. After the paraffin sections conventional dewaxing to water, put the sections into Hematoxylin solution for 3-5 min and treat the sections with Hematoxylin Differentiation solution. […] Finally, dehydrated the sections with gradient alcohol and xylene, and sealed with neutral gum. Images were captured with a microscope (BX53, Olympus).
Immunofluorescence staining was performed using paraffin-embedded tissues as mentioned before. For immunofluorescence, the paraffin slides were deparaffinized, rehydrated, blocked and treated according to a standard protocol. […] All slides were incubated with DAPI (S2110, Solarbio) for 10 min to show the location of the nucleus. Images were captured with a confocal microscope (LSM 800, Zeiss).

[2] = test system: mucosal barrier function; assay: Intestinal permeability, serum FITC-dextran in DSS-treated mice; assay type: in vivo, mouse
Experimental: The mice treated with DSS for 7 days were fasted for 6 h, given FITC-dextran (3-5 kDa, FD4, sigma) intragastrically at a dose of 60 mg kg^−1. After 3 h, hemolysis-free sera were collected and the fluorescence intensity of serum was read by a multi-mode microplate reader (excitation, 488 nm; emission, 520 nm).

[3] = Solubility; assay type: physicochemical; conditions: compared with compound D4
[4] = test system: HT-29 cells; assay: Cytotoxicity by CCK8 analysis in HT-29 cells; assay type: cell-based, human
Experimental: (§1) Necroptosis was induced by pretreatment with TNF‐α (20 ng·mL^−1) plus z‐VAD‐fmk (20 μM) and Smac mimetic (BV6, 2 μM) for 8 h, then stained cells with hematoxylin/eosin. For PI/Hoechst staining, cells were stained with PI and Hoechst for 20 min, then photographed with a fluorescence microscope and at least 300 cells were counted. The ratio of PI positive cells (%) = (PI positive cells) / (Hoechst positive cells) × 100%. For cell viability assay, CCK8 was added to the well and incubated for 1 − 2 h and then OD450 was measured using a multi-mode microplate reader (Cytation5, BioTek).

[5] = biological target: T1, P2Y14R (Homo sapiens, UniProt Q15391); assay: Cellular thermal shift assay (CETSA) in P2Y14-HEK293 cells; assay type: binding
T1 sequence (Q15391 1-338): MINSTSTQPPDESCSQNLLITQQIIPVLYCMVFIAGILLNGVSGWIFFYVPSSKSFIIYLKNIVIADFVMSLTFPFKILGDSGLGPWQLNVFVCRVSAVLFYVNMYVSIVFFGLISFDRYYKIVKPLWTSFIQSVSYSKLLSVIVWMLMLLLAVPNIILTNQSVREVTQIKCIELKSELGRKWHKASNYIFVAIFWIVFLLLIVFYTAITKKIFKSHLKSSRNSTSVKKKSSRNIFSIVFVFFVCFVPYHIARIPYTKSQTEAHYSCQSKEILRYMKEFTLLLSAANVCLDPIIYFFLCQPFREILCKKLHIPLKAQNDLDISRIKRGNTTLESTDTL

[6] = test system: HT-29 cells; assay: TSZ-induced necroptosis in HT-29 cells (CCK8 viability, PI/Hoechst, H&E staining); assay type: cell-based, human
Experimental: as §1

[7] = test system: intestinal organoids; assay: TSZ-induced necroptosis in intestinal organoids (PI staining); assay type: cell-based, mouse; conditions: P2Y14Rfl/fl organoids, pre-treated with compound
Experimental: Crypts were released from the murine small intestine by incubation for 30 min at 4°C in PBS containing 2 mM EDTA. Isolated crypts were counted and pelleted. […] Organoid media were changed every 3 days. […] Dead cell imaging in live organoids was performed on the fluorescence microscope (BX53, Olympus Optical), and analyzed by image j.

[8] = parameters: method as in PMID 24138077; conditions: cited from earlier work
[9] = DSS-treated mice, group -H (high dose), Day 1
[10] = DSS-treated mice, group -L (low dose), Day 1
[11] = 100 μl per mouse, rectal, 3% DSS 7 days
[12] = P2Y14R△IEC mice + DSS + PPTN, individual mice, supplement Figure 4e

Brc1ccc(NCc2nc3ccccc3o2)cc1 [HDL-16]
DAI [1, 9]: 0
Weight (%) [1, 9]: 95.5056% and 101.124% and 106.742%
Weight (%) ([1]; DSS-treated mice, group -H (high dose), Day 2): 95.5056% and 101.124% and 89.8876% and 106.742%
Weight (%) ([1]; DSS-treated mice, group -H (high dose), Day 3): 100% and 94.1176% and 94.4444% and 94.7368%
Weight (%) ([1]; DSS-treated mice, group -H (high dose), Day 4): 94.1176% and 88.2353% and 94.4444% and 88.8889% and 94.7368%
Weight (%) ([1]; DSS-treated mice, group -H (high dose), Day 5): 94.1176% and 88.2353% and 94.4444% and 83.3333% and 89.4737%
Weight (%) ([1]; DSS-treated mice, group -H (high dose), Day 6): 88.2353% and 82.3529% and 88.8889% and 83.3333% and 84.2105%
Weight (%) ([1]; DSS-treated mice, group -H (high dose), Day 7): 88.2353% and 82.3529% and 88.8889% and 77.7778% and 78.9474%
DAI [1, 10]: 0
Weight (%) [1, 10]: 100.935% and 95.3271% and 106.542%
Weight (%) ([1]; DSS-treated mice, group -L (low dose), Day 2): 100.935% and 95.3271% and 89.7196% and 106.542%
Weight (%) ([1]; DSS-treated mice, group -L (low dose), Day 3): 94.4444% and 94.1176% and 100%
Weight (%) ([1]; DSS-treated mice, group -L (low dose), Day 4): 100% and 94.4444% and 94.1176% and 94.7368%
Weight (%) ([1]; DSS-treated mice, group -L (low dose), Day 5): 100% and 94.4444% and 88.2353% and 89.4737% and 88.8889% and 94.1176%
Weight (%) ([1]; DSS-treated mice, group -L (low dose), Day 6): 100% and 94.4444% and 88.2353% and 89.4737%
Weight (%) ([1]; DSS-treated mice, group -L (low dose), Day 7): 94.4444% and 88.8889% and 94.1176% and 84.2105% and 88.2353%
Colitis symptoms [1]: significantly suppressed colitis symptoms
H&E staining: inflammatory infiltration and tissue damage ([1]; 100 μl per mouse): improved DSS-induced inflammatory infiltration and tissue damage
Tight junction protein expression (immunofluorescence) ([1]; 100 μl per mouse): stabilized the expression of tight junction protein Claudin-1, Occludin and ZO-1
Body weight loss and DAI vs DSS-exposed mice [1, 11]: dramatically less body weight loss and lower DAI
Colon length vs mice treated with DSS only [1, 11]: significantly longer
Comparison with the DSS-treated group (colitis parameters) ([1]; low-dose, 10 μM, 100 μl per mouse, rectal, 3% DSS 7 days): no significant difference
Serum level of FITC-dextran in DSS-treated mice relative to treated group ([2]; high-dose, 20 μM, 100 μl per mouse): significantly higher
Solubility [3]: increased solubility
Cell viability (%) ([4]; 1 nm): 114%
Cell viability (%) ([4]; 1 μm): 116%
Cell viability (%) ([4]; 10 nm): 95% and 93% and 119% and 111%
Cell viability (%) ([4]; 10 μm): 115% and 106% and 113%
Cell viability (%) ([4]; 100 nm): 110% and 99%
Cytotoxicity in HT-29 cells ([4]; CCK8, 12 h, under the concentration of 10 μM): almost no cytotoxicity
Thermal stability of P2Y14R ([5]; 10 µM, high temperature 50°C to 60°C): increased the thermal stability of P2Y14R
p2y14/actin ([5]; 50 °C): 0.9863 and 0.7504 and 1.263
p2y14/actin ([5]; 52 °C): 0.8682 and 0.8052 and 1.097
p2y14/actin ([5]; 54 °C): 0.8235 and 0.8131 and 0.9578
p2y14/actin ([5]; 56 °C): 0.6752 and 0.6905 and 0.8001
p2y14/actin ([5]; 58 °C): 0.4486 and 0.4259 and 0.4526
p2y14/actin ([5]; 60 °C): 0.3634 and 0.3497 and 0.2374
p2y14/actin ([5]; con 0.001 µM): 0.1618 and 0.1023 and 0.1705
p2y14/actin ([5]; con 0.1 µM): 0.6503 and 0.6207 and 0.4614
p2y14/actin ([5]; con 1 µM): 0.7977 and 0.6147 and 1.014
p2y14/actin ([5]; con 10 µM): 1.142 and 0.89 and 0.9685
Melting temperature (Tm) of P2Y14R ([5]; different concentrations): increased the melting temperature (Tm) of P2Y14R in a dose-dependent manner
Necroptosis of HT-29 cells (PI staining) ([6]; TSZ-treated, pre-administrated with compound): inhibit the necroptosis
TSZ-induced necroptosis of organoids (PI staining) [7]: protected P2Y14R^fl/fl organoids from TSZ-induced necroptosis

O=C(O)c1cc(-c2ccc(C3CCNCC3)cc2)c2ccc(-c3ccc(C(F)(F)F)cc3)cc2c1 [PPTN, reference compound]
DAI ([1]; DSS-treated mice, Day 1): 0
Weight (%) ([1]; DSS-treated mice, Day 1): 101.124% and 106.742% and 95.5056%
Weight (%) ([1]; DSS-treated mice, Day 2): 101.124% and 106.742% and 95.5056%
Weight (%) ([1]; DSS-treated mice, Day 3): 95.5056% and 106.742%
Weight (%) ([1]; DSS-treated mice, Day 4): 89.8876% and 101.124% and 95.5056%
Weight (%) ([1]; DSS-treated mice, Day 5): 89.8876% and 101.124% and 84.2697% and 95.5056%
Weight (%) ([1]; DSS-treated mice, Day 6): 84.2697% and 95.5056% and 89.8876%
Weight (%) ([1]; DSS-treated mice, Day 7): 89.8876% and 95.5056% and 84.2697%
Colon length (cm) ([1]; DSS-treated mice, Figure 7c): 6.3 cm and 7.4 cm and 5.5 cm and 5.9 cm and 6.7 cm and 7.1 cm
Colitis symptoms [1]: significantly suppressed colitis symptoms
H&E staining: inflammatory infiltration and tissue damage ([1]; 100 μl per mouse): improved DSS-induced inflammatory infiltration and tissue damage
Tight junction protein expression (immunofluorescence) ([1]; 100 μl per mouse): stabilized the expression of tight junction protein Claudin-1, Occludin and ZO-1
Body weight loss and DAI vs DSS-exposed mice [1, 11]: dramatically less body weight loss and lower DAI
Colon length vs mice treated with DSS only [1, 11]: significantly longer
CON(ug/ml), serum FITC-dextran ([2]; DSS-treated mice, Figure 7e): 12.4177 µg/mL and 12.0055 µg/mL and 12.4453 µg/mL and 11.0788 µg/mL and 9.474 µg/mL and 9.103 µg/mL
CON [2, 12]: 6.506 µg/mL and 7.571 µg/mL and 6.5332 µg/mL and 6.645 µg/mL and 6.518 µg/mL and 7.625 µg/mL
Serum fluorescence intensity [2, 12]: 5968551 and 6689623 and 5987216 and 6062672 and 5977001 and 6726135
Oral bioavailability [8]: low oral bioavailability
PI positive cell, PI intensity (%) ([6]; Figure 7k, TSZ-treated cells): 15.53% and 10.57% and 8.89%
